Structures can show the parent of a compound that is named as a salt.
Tests used:
[1] = in vitro; conditions: microsomes
Protocol: Experiments were conducted to determine the intrinsic clearance by substrate depletion for COMPOUND I metabolism in liver microsomes in the presence of NADPH and UDPGA. Incubations containing midazolam (0.2 μM with 0.1 mg/mL liver microsomes) or diclofenac (1 μM with 1 mg/mL liver microsomes) were also performed as positive controls for oxidative and glucuronidation activity, respectively. Sample preparation and incubation were performed on a MultiProbe IIEX Robotic Liquid Handling System (Perkin-Elmer, Shelton, Conn.) and a Micromix 5 (Packard, Downers Grove, Ill.). Samples were pre-incubated at 37° C. Control incubations were conducted under the same conditions without cofactors. At specified time points (0, 10, 20 and 30 min), 150 μL aliquots were transferred to tubes with 500 μL acetonitrile containing 30 ng/mL of the internal standard (furosemide) to precipitate the protein. Samples were centrifuged at 4° C. for 10 min at 3400 rpm (ThermoForma, Marietta, Ohio). The supernatant (400 μL) was transferred to a clean test tube and the acetonitrile evaporated under a stream of nitrogen in a Turbo Vap (Caliper Life Sciences, Hopkinton, Mass.). The samples were then reconstituted in 200 μL of 20% methanol in water and analyzed by LC/MS.
The HPLC system used was a Surveyor HPLC (Thermo Electron Corp., San Jose, Calif.). Separations were accomplished on a Supelcosil LC-C18 column (150×4.6 mm, 5 μm) (Supelco, Bellefonte, Pa.). The column temperature was maintained at ambient and the sample chamber was at 10° C. Mobile phase A was 5 mM ammonium acetate in water and mobile phase B was methanol.
The mass spectrometer used for microsomal stability analysis was a TSQ Quantum (Thermo Electron Corp.; San Jose, Calif.) equipped with an electrospray ionization (ESI) source and operated in the positive ionization mode.
Peak area ratios for COMPOUND I against the internal standard were used to express the % remaining at given time points. The percent of remaining COMPOUND I was calculated by dividing the […]. In vitro intrinsic clearance (CLint) of COMPOUND I was calculated by linear regression of log % remaining vs time plots using Microsoft Excel, 7.0 and normalizing to mg protein content. Metabolic half-life (t1/2) was calculated by dividing 0.693 by the intrinsic clearance.

[2] = target: T1, human 5-HT1A receptor (Homo sapiens, UniProt P08908); experiment: [3H]-8-OH-DPAT displacement radioligand binding; conditions: h5-HT1A.CHO cell membranes, read-out: Ki value for 5-HT1A affinity
T1 construct: expressed in transfected cells
T1 sequence (P08908 1-422): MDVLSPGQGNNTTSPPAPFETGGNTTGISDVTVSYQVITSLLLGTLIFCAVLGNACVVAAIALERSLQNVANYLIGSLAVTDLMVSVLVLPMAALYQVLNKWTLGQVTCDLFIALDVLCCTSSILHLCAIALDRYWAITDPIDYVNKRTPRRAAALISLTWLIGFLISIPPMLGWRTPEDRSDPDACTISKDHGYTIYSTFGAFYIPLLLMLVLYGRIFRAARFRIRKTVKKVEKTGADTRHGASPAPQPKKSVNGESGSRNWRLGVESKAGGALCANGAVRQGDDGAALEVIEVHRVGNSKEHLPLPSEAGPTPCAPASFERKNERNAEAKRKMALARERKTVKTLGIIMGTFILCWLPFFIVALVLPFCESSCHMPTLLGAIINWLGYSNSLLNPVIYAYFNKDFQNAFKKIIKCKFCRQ
Protocol: A Ki value is reported. The in vitro functional activity of the compounds of this invention is determined by measuring the effect of the compound on forskolin-induced adenylate cyclase activity in the same cell line. 5-HT1A agonists, such as the full agonist 8-OH-DPAT, inhibit forskolin-induced adenylate cyclase activity, as measured by a reduction in cAMP levels. The compounds of this invention display agonist activity as shown by its ability to induce a decrease in cAMP levels. An EC50 value is reported and the maximum response of the test compound is reported as the percent of a full agonist response (the maximum response obtained with the full agonist 8-OH-DPAT=100%). This percent is expressed as an Emax value.
The PCR cloning of the human 5-HT1A receptor subtype from a human genomic library has been described previously (Chanda et al., Mol. Pharmacol., 43:516 (1993)). A stable Chinese hamster ovary cell line expressing the human 5-HT1A receptor subtype (h5-HT1A.CHO cells) was employed throughout this study. Cells were maintained in DMEM supplemented with 10% fetal calf serum, non-essential amino acids and penicillin/streptomycin.
Radioligand binding assays can be performed as described in Dunlop, J. et al., J. Pharmacol. and Toxicol. Methods 40: 47-55 (1998). […] Non-specific binding is determined in the presence of 10 μM 5HT. […]

Which half-life at 1 μM ([1]; both, human) does the source give for `COc1cc(N2CCN(C3CCN(c4ccc(F)c5cccnc45)CC3)CC2)c2ncccc2c1` [COMPOUND I, 5-Fluoro-8-{4-[4-(6-methoxyquinolin-8-yl)piperazin-1-yl]piperidin-1-yl}quinoline] here?
Its half-life at 1 μM is 7 min.

And the microsomal CLint at 1 μM ([1]; both, human)?
Its microsomal CLint at 1 μM is 100 µL/min/mg.

And the half-life at 1 μM ([1]; male, Sprague-Dawley, rat)?
Its half-life at 1 μM is 2 min.

What about the microsomal CLint at 1 μM ([1]; male, Sprague-Dawley, rat) of the same compound?
The microsomal CLint at 1 μM was 332 µL/min/mg.

What about the half-life at 1 μM ([1]; male, beagle, dog) of the same compound?
The half-life at 1 μM was 13 min.

What about the microsomal CLint at 1 μM ([1]; male, beagle, dog) of the same compound?
Its microsomal CLint at 1 μM is 55 µL/min/mg.

What about the half-life at 1 μM ([1]; male, monkey) of the same compound?
Its half-life at 1 μM is 2 min.

What about the microsomal CLint at 1 μM ([1]; male, monkey) of the same compound?
Its microsomal CLint at 1 μM is 312 µL/min/mg.

Which Ki [2] does the source give for `Oc1cc(N2CCN(C3CCN(c4ccc(F)c5cccnc45)CC3)CC2)c2ncccc2c1` [Metabolite M21, 8-{4-[1-(5-fluoroquinolin-8-yl)piperidin-4-yl]piperazin-1-yl}quinolin-6-ol trihydrochloride] here?
The Ki was 0.47 nM.

— patent publication US20080262228A1, “Metabolites of 5-fluoro-8- quinoline and methods of preparation and uses thereof” (Wyeth, priority 2006, published 2008)
